# Experiments:
# Assay type in all cases: in vivo
# hemoglobin, erythrocytes = assay: Erythropoiesis in irradiated mice (4 Gy); conditions: for Hemoglobin Content in blood: 4 Gy
# From the text: The effect of the peptide on erythropoiesis in irradiated mice (4 Gy) was also studied. The mice were irradiated and treated with the peptide as in Example 7.
# [1] = Chronic toxicity, general state and pathomorphologic investigation
# From the text: The general state of the animals, behaviour, motor function, cardio-vascular, respiratory activity, liver and kidney functions were within the range of physiologic fluctuations.
# nucleated blood cells = assay: Nucleated blood cells and lymphocytes in irradiated mice (4 Gy), scheme 1; set-up: Lymphocytes (absolute) in blood: unit not given here; conditions: for Karyocyte Count in Blood: scheme 1, 10 μg/kg i.m.
# Protocol: Irradiated mice (4 Gy) received intramuscular injections of the peptide in the dose of 10 μg/kg according to 2 schemes.
# a) Scheme 1: mice received the peptide immediately after irradiation, daily. […] Blood samples were taken four hours after the last peptide injection and on the 7th, 10th, and 16th day after the irradiation. Determined were total count of nucleated blood cells (NC) and lymphocyte percentage of them; nucleated cells and the CFU-S population in femoral bone marrow were counted on the 4th, 8th, and the 14th day.
# CFU-S = assay: Endogenous spleen colonies in irradiated mice (6 Gy); conditions: 10 μg/kg IM, Day 9
# Protocol: Test mice were irradiated in the dose of 6 Gy Beginning from the first hour after the irradiation, the mice received once daily IM injections of 10 μg/kg H-Ile-Glu-Trp-OH. Injections were made 1, 2, 3, or 4 times. The mice were killed on Day 9, spleens were taken out and fixed in Buene's solution, the colonies were counted. 110 mice were used in the test.
substance,measurement,setting,value
H-Ile-Glu-Trp-OH,"Erythrocyte counts, test versus control groups","hemoglobin, erythrocytes; 4 Gy mice",did not differ
same,restoration of hemoglobin level,"hemoglobin, erythrocytes; 4 Gy treated mice (control: by day 14)",become normal by the 11th day
same,Hemoglobin Content in blood,"hemoglobin, erythrocytes; scheme 2, 1 Time, Day 7",9.4 ± 0.8 r/dl
same,Hemoglobin Content in blood,"hemoglobin, erythrocytes; scheme 2, 1 Time, Day 11",12.6 ± 0.1 r/dl
same,Hemoglobin Content in blood,"hemoglobin, erythrocytes; scheme 2, 1 Time, Day 14",11.8 ± 0.5 r/dl
same,Hemoglobin Content in blood,"hemoglobin, erythrocytes; scheme 2, 1 Time, Day 18",12.1 ± 0.1 r/dl
same,Hemoglobin Content in blood,"hemoglobin, erythrocytes; scheme 2, 1 Time, Day 21",12.1 ± 0.4 r/dl
same,Hemoglobin Content in blood,"hemoglobin, erythrocytes; scheme 2, 2 Times, Day 7",9.6 ± 0.4 r/dl
same,Hemoglobin Content in blood,"hemoglobin, erythrocytes; scheme 2, 2 Times, Day 11",12.0 ± 0.1 r/dl
same,Hemoglobin Content in blood,"hemoglobin, erythrocytes; scheme 2, 2 Times, Day 14",10.8 ± 0.8 r/dl
same,Hemoglobin Content in blood,"hemoglobin, erythrocytes; scheme 2, 2 Times, Day 18",11.5 ± 0.6 r/dl
same,Hemoglobin Content in blood,"hemoglobin, erythrocytes; scheme 2, 2 Times, Day 21",11.7 ± 0.6 r/dl
same,Hemoglobin Content in blood,"hemoglobin, erythrocytes; scheme 2, 3 Times, Day 7",10.15 ± 0.8 r/dl
same,Hemoglobin Content in blood,"hemoglobin, erythrocytes; scheme 2, 3 Times, Day 11",11.9 ± 0.4 r/dl
same,Hemoglobin Content in blood,"hemoglobin, erythrocytes; scheme 2, 3 Times, Day 14",12.1 ± 0.2 r/dl
same,Hemoglobin Content in blood,"hemoglobin, erythrocytes; scheme 2, 3 Times, Day 18",11.7 ± 0.2 r/dl
same,Hemoglobin Content in blood,"hemoglobin, erythrocytes; scheme 2, 3 Times, Day 21",11.9 ± 0.3 r/dl
same,Hemoglobin Content in blood,"hemoglobin, erythrocytes; scheme 2, 4 Times, Day 7",14.4 ± 0.9 r/dl
same,Hemoglobin Content in blood,"hemoglobin, erythrocytes; scheme 2, 4 Times, Day 11",12.2 ± 0.1 r/dl
same,Hemoglobin Content in blood,"hemoglobin, erythrocytes; scheme 2, 4 Times, Day 14",12.0 ± 0.2 r/dl
same,Hemoglobin Content in blood,"hemoglobin, erythrocytes; scheme 2, 4 Times, Day 18",11.7 ± 0.4 r/dl
same,Hemoglobin Content in blood,"hemoglobin, erythrocytes; scheme 2, 4 Times, Day 21",12.0 ± 0.6 r/dl
same,pathomorphologic investigation (with histologic investigation of organs),[1]; chronic toxicity,failed to find any pathologic processes
same,side effects,[1]; doses 10-100 times as large as the therapeutic ones,no side effects were observed
same,Survival,nucleated blood cells; scheme 1 (footnote of Table 7),100%
same,Karyocyte Count in Blood,"nucleated blood cells; 1 Time, Day 4",0.80 ± 0.5 × 10^3 /lmm^3
same,Karyocyte Count in Blood,"nucleated blood cells; 1 Time, Day 7",3.53 ± 0.5 × 10^3 /lmm^3
same,Karyocyte Count in Blood,"nucleated blood cells; 1 Time, Day 10",4.30 ± 0.3 × 10^3 /lmm^3
same,Karyocyte Count in Blood,"nucleated blood cells; 1 Time, Day 16",4.49 ± 0.8 × 10^3 /lmm^3
same,Karyocyte Count in Blood,"nucleated blood cells; 2 Times, Day 4",1.30 ± 0.2 × 10^3 /lmm^3
same,Karyocyte Count in Blood,"nucleated blood cells; 2 Times, Day 7",3.64 ± 0.6 × 10^3 /lmm^3
same,Karyocyte Count in Blood,"nucleated blood cells; 2 Times, Day 10",6.42 ± 0.7 × 10^3 /lmm^3
same,Karyocyte Count in Blood,"nucleated blood cells; 2 Times, Day 16",5.96 ± 1.0 × 10^3 /lmm^3
same,Karyocyte Count in Blood,"nucleated blood cells; 3 Times, Day 4",1.19 ± 0.1 × 10^3 /lmm^3
same,Karyocyte Count in Blood,"nucleated blood cells; 3 Times, Day 7",5.58 ± 0.7 × 10^3 /lmm^3
same,Karyocyte Count in Blood,"nucleated blood cells; 3 Times, Day 10",4.18 ± 0.8 × 10^3 /lmm^3
same,Karyocyte Count in Blood,"nucleated blood cells; 3 Times, Day 16",6.32 ± 0.7 × 10^3 /lmm^3
same,Karyocyte Count in Blood,"nucleated blood cells; 4 Times, Day 4",1.64 ± 0.2 × 10^3 /lmm^3
same,Karyocyte Count in Blood,"nucleated blood cells; 4 Times, Day 7",4.14 ± 0.8 × 10^3 /lmm^3
same,Karyocyte Count in Blood,"nucleated blood cells; 4 Times, Day 10",4.90 ± 0.7 × 10^3 /lmm^3
same,Karyocyte Count in Blood,"nucleated blood cells; 4 Times, Day 16",7.32 ± 1.0 × 10^3 /lmm^3
same,Lymphocytes (absolute) in blood,"nucleated blood cells; scheme 1, 1 Time, Day 4",232
same,"Lymphocytes, % in blood","nucleated blood cells; scheme 1, 1 Time, Day 4",29.0 ± 2.5%
same,Lymphocytes (absolute) in blood,"nucleated blood cells; scheme 1, 1 Time, Day 7",1365
same,"Lymphocytes, % in blood","nucleated blood cells; scheme 1, 1 Time, Day 7",38.8 ± 3.1%
same,Lymphocytes (absolute) in blood,"nucleated blood cells; scheme 1, 1 Time, Day 10",1118
same,"Lymphocytes, % in blood","nucleated blood cells; scheme 1, 1 Time, Day 10",26.3 ± 2.9%
same,Lymphocytes (absolute) in blood,"nucleated blood cells; scheme 1, 1 Time, Day 16",2412
same,"Lymphocytes, % in blood","nucleated blood cells; scheme 1, 1 Time, Day 16",53.6 ± 6.0%
same,Lymphocytes (absolute) in blood,"nucleated blood cells; scheme 1, 2 Times, Day 4",468
same,"Lymphocytes, % in blood","nucleated blood cells; scheme 1, 2 Times, Day 4",36.0 ± 1.7%
same,Lymphocytes (absolute) in blood,"nucleated blood cells; scheme 1, 2 Times, Day 7",1260
same,"Lymphocytes, % in blood","nucleated blood cells; scheme 1, 2 Times, Day 7",34.8 ± 2.1%
same,Lymphocytes (absolute) in blood,"nucleated blood cells; scheme 1, 2 Times, Day 10",1664
same,"Lymphocytes, % in blood","nucleated blood cells; scheme 1, 2 Times, Day 10",25.5 ± 2.7%
same,Lymphocytes (absolute) in blood,"nucleated blood cells; scheme 1, 2 Times, Day 16",2682
same,"Lymphocytes, % in blood","nucleated blood cells; scheme 1, 2 Times, Day 16",44.8 ± 6.2%
same,Lymphocytes (absolute) in blood,"nucleated blood cells; scheme 1, 3 Times, Day 4",432
same,"Lymphocytes, % in blood","nucleated blood cells; scheme 1, 3 Times, Day 4",36.0 ± 1.3%
same,Lymphocytes (absolute) in blood,"nucleated blood cells; scheme 1, 3 Times, Day 7",1512
same,"Lymphocytes, % in blood","nucleated blood cells; scheme 1, 3 Times, Day 7",27.1 ± 1.9%
same,Lymphocytes (absolute) in blood,"nucleated blood cells; scheme 1, 3 Times, Day 10",1233
same,"Lymphocytes, % in blood","nucleated blood cells; scheme 1, 3 Times, Day 10",29.5 ± 3.6%
same,Lymphocytes (absolute) in blood,"nucleated blood cells; scheme 1, 3 Times, Day 16",2853
same,"Lymphocytes, % in blood","nucleated blood cells; scheme 1, 3 Times, Day 16",44.8 ± 4.80%
same,Lymphocytes (absolute) in blood,"nucleated blood cells; scheme 1, 4 Times, Day 4",639
same,"Lymphocytes, % in blood","nucleated blood cells; scheme 1, 4 Times, Day 4",39.0 ± 2.9%
same,Lymphocytes (absolute) in blood,"nucleated blood cells; scheme 1, 4 Times, Day 7",1025
same,"Lymphocytes, % in blood","nucleated blood cells; scheme 1, 4 Times, Day 7",25.6 ± 3.7%
same,Lymphocytes (absolute) in blood,"nucleated blood cells; scheme 1, 4 Times, Day 10",1475
same,"Lymphocytes, % in blood","nucleated blood cells; scheme 1, 4 Times, Day 10",30.7 ± 6.5%
same,Lymphocytes (absolute) in blood,"nucleated blood cells; scheme 1, 4 Times, Day 16",2847
same,"Lymphocytes, % in blood","nucleated blood cells; scheme 1, 4 Times, Day 16",38.5 ± 1.40%
same,Colony (endogenous spleen colonies),CFU-S; 1 times,3.3 ± 0.6
same,Colony (endogenous spleen colonies),CFU-S; 2 times,4.4 ± 0.5
same,Colony (endogenous spleen colonies),CFU-S; 3 times,5.0 ± 0.7
same,Colony (endogenous spleen colonies),CFU-S; 4 times,5.2 ± 0.8
